This is an account of results in US20260317320A1, “C5AR1 ANTAGONISTS AND USES THEREOF” (Vanqua Bio, Inc., priority 2022, published 2026).

Like-named read-outs stand apart in the source and are kept apart here.

Experiment [1] deals with T1, complement C5a receptor 1 (C5aR1) (Homo sapiens, UniProt P21730).
T1 construct: β-galactosidase fragment (PathHunter enzyme complementation); host or cells: CHO-K1 (PathHunter CHO-K1 C5aR1 β-arrestin cell line)
T1 sequence (P21730 1-350): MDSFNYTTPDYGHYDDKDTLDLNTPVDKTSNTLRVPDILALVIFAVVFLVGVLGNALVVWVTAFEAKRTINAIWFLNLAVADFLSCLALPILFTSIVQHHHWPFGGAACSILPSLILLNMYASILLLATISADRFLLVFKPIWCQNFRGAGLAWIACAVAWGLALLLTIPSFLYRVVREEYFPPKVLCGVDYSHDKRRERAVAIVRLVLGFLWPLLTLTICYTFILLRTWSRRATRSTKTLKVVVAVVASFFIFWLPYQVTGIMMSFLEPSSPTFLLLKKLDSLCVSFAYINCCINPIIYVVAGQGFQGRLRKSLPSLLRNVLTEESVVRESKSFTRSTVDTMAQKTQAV
Put plainly: β-arrestin recruitment via C5aR1 activation in live CHO-K1 cells (PathHunter), agonist mode. It counts as cell-based. The method, boiled down:
(§1)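 Live CHO-K1 cells carry two galactosidase enzyme fragments, one fused to β-arrestin and one to C5aR1, so that β-arrestin recruitment restores enzyme activity. Agonist mode tests compounds alone. Antagonist mode tests them against recombinant hC5a at EC90, and IC50 values are reported in binned ranges.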
On the technique in general: Activated receptors often draw arrestin, which recruitment assays turn into a signal.

The target in experiment [2] is T1, complement C5a receptor 1 (C5aR1). Put plainly: β-arrestin recruitment via C5aR1 activation in live CHO-K1 cells (PathHunter), antagonist mode. It counts as cell-based. The note with it: antagonist mode; recombinant hC5a (EC90) as competing natural agonist; live CHO-K1 cells; read-out: [Antagonist] B-arrestin2 recruitment: Average IC50. The method, boiled down:
as §1

For orientation: IC50 means the point on the concentration scale where inhibition reaches its midpoint. In the case of `Cc1cnc2cc([C@H]3CC[C@H](c4c(C)cccc4F)CC3)c(=O)n(Cc3ncccc3C(F)F)c2n1` [compound 176, 5-((3-(Difluoromethyl)pyridin-2-yl)methyl)-7-((1r,4r)-4-(2-fluoro-6-methylphenyl)cyclohexyl)-3-methylpyrido[2,3-b]pyrazin-6(5H)-one], the “[Agonist] B-arrestin2 recruitment: Average EC50 (nM)” value (“[Agonist] B-arrestin2 recruitment” for short) in experiment [1] is given as “Non-Active”. Further, the half-maximal inhibitory concentration (IC50) in experiment [2] is less than 500 nM.

Take `Cc1cnc2cc([C@H]3CC[C@H](c4c(C)cccc4F)CC3)c(=O)n(Cc3ncccc3C(C)(F)F)c2n1` [compound 177, 5-((3-(1,1-Difluoroethyl)pyridin-2-yl)methyl)-7-((1r,4r)-4-(2-fluoro-6-methylphenyl)cyclohexyl)-3-methylpyrido[2,3-b]pyrazin-6(5H)-one]: the “[Agonist] B-arrestin2 recruitment” value in experiment [1] is “Non-Active”. The IC50 in experiment [2] is less than 500 nM.

In the case of `Cc1cnc2cc([C@H]3CC[C@H](c4cnccc4C(F)F)CC3)c(=O)n(Cc3ncccc3C(F)(F)F)c2n1` [compound 178, 7-((1r,4r)-4-(4-(Difluoromethyl)pyridin-3-yl)cyclohexyl)-3-methyl-5-((3-(trifluoromethyl)pyridin-2-yl)methyl)pyrido[2,3-b]pyrazin-6(5H)-one], in experiment [1], the “[Agonist] B-arrestin2 recruitment” value is “Non-Active”. Moreover, the IC50 in experiment [2] is less than 500 nM.

As for `Cc1cnc2cc([C@H]3CC[C@H](c4ncccc4C(F)F)CC3)c(=O)n(Cc3ncccc3C(F)(F)F)c2n1` [compound 179, 7-((1r,4r)-4-(3-(Difluoromethyl)pyridin-2-yl)cyclohexyl)-3-methyl-5-((3-(trifluoromethyl)pyridin-2-yl)methyl)pyrido[2,3-b]pyrazin-6(5H)-one], in experiment [1] (at 10 μM), the “[Agonist] B-arrestin2 recruitment” value is on record as “Non-Active at 10 μM”. Moreover, the 50% inhibitory concentration (IC50) in experiment [2] was less than 500 nM.

Regarding `Cc1cnc2cc([C@H]3CC[C@H](c4ncccc4C(F)(F)F)CC3)c(=O)n(Cc3ncccc3C(F)(F)F)c2n1` [compound 180, 3-Methyl-7-((1r,4r)-4-(3-(trifluoromethyl)pyridin-2-yl)cyclohexyl)-5-((3-(trifluoromethyl)pyridin-2-yl)methyl)pyrido[2,3-b]pyrazin-6(5H)-one], the “[Agonist] B-arrestin2 recruitment” value in experiment [1] (at 10 μM) is given as “Non-Active at 10 μM”. For the same compound, in experiment [2], the half-inhibitory concentration (IC50) is less than 500 nM.

With `Cc1cnc2cc(C3CCN(c4ccc5c(cnn5C)c4)CC3)c(=O)n(Cc3ncccc3C(F)(F)F)c2n1` [compound 181, 3-Methyl-7-(1-(1-methyl-1H-indazol-5-yl)piperidin-4-yl)-5-((3-(trifluoromethyl)pyridin-2-yl)methyl)pyrido[2,3-b]pyrazin-6(5H)-one], the “[Agonist] B-arrestin2 recruitment” value in experiment [1] (at 10 μM) is given as “Non-Active at 10 μM”. In addition, the IC50 in experiment [2] was 5000 to 100000 nM.

As to `Cc1cnc2c(cc([C@H]3CC[C@H](c4c(C)cccc4F)CC3)c(=O)n2Cc2ncccc2C(F)(F)F)n1` [compound 182, 7-((1r,4r)-4-(2-Fluoro-6-methylphenyl)cyclohexyl)-2-methyl-5-((3-(trifluoromethyl)pyridin-2-yl)methyl)pyrido[2,3-b]pyrazin-6(5H)-one], the “[Agonist] B-arrestin2 recruitment” value in experiment [1] (at 10 μM) is “Non-Active at 10 μM”. Further, the half-maximal inhibitory concentration (IC50) in experiment [2] was less than 500 nM.

For `Cc1ccc2cc([C@H]3CC[C@H](c4c(C)cccc4F)CC3)c(=O)n(Cc3ncccc3C(F)(F)F)c2n1` [compound 183, 3-((1r,4r)-4-(2-Fluoro-6-methylphenyl)cyclohexyl)-7-methyl-1-((3-(trifluoromethyl)pyridin-2-yl)methyl)-1,8-naphthyridin-2(1H)-one], in experiment [1] (at 10 μM), the “[Agonist] B-arrestin2 recruitment” value is “Non-Active at 10 μM”. Also, the IC50 in experiment [2] was less than 500 nM.

`Cc1cnc2cc(C3CCN(c4c(F)ccc5c4cnn5C)CC3)c(=O)n(Cc3ncccc3C(F)(F)F)c2n1` [compound 184, 7-(1-(5-Fluoro-1-methyl-1H-indazol-4-yl)piperidin-4-yl)-3-methyl-5-((3-(trifluoromethyl)pyridin-2-yl)methyl)pyrido[2,3-b]pyrazin-6(5H)-one]: in experiment [1] (at 10 μM), the “[Agonist] B-arrestin2 recruitment” value is “Non-Active at 10 μM”. For the same compound, the IC50 in experiment [2] lay in the range of 500 to 5000 nM.

For `Cc1cnc2cc(C3CCN(c4c(C)ccc5c4cnn5C)CC3)c(=O)n(Cc3ncccc3C(F)(F)F)c2n1` [compound 185, 7-(1-(1,5-Dimethyl-1H-indazol-4-yl)piperidin-4-yl)-3-methyl-5-((3-(trifluoromethyl)pyridin-2-yl)methyl)pyrido[2,3-b]pyrazin-6(5H)-one], the “[Agonist] B-arrestin2 recruitment” value in experiment [1] (at 10 μM) is “Non-Active at 10 μM”. Also, the IC50 in experiment [2] lay in the range of 500 to 5000 nM.

As for `Cc1cnc2cc(C3CCN(c4nn(C)c5ccccc45)CC3)c(=O)n(Cc3ncccc3C(F)(F)F)c2n1` [compound 186, 3-Methyl-7-(1-(1-methyl-1H-indazol-3-yl)piperidin-4-yl)-5-((3-(trifluoromethyl)pyridin-2-yl)methyl)pyrido[2,3-b]pyrazin-6(5H)-one], in experiment [1] (at 10 μM), the “[Agonist] B-arrestin2 recruitment” value is on record as “Non-Active at 10 μM”. For the same compound, the IC50 in experiment [2] fell in the range of 5000 to 100000 nM.

For `Cc1cnc2cc([C@H]3CC[C@H](c4cnccc4C(C)(F)F)CC3)c(=O)n(Cc3ncccc3C(F)(F)F)c2n1` [compound 188, 7-((1r,4r)-4-(4-(1,1-Difluoroethyl)pyridin-3-yl)cyclohexyl)-3-methyl-5-((3-(trifluoromethyl)pyridin-2-yl)methyl)pyrido[2,3-b]pyrazin-6(5H)-one], the “[Agonist] B-arrestin2 recruitment” value in experiment [1] (at 10 μM) is recorded as “Non-Active at 10 μM”. Moreover, the IC50 in experiment [2] is less than 500 nM.

Take `COc1ccnc(F)c1[C@H]1CC[C@H](c2cc3ncc(C)nc3n(Cc3ncccc3C(F)(F)F)c2=O)CC1` [compound 189, 7-((1r,4r)-4-(2-Fluoro-4-methoxypyridin-3-yl)cyclohexyl)-3-methyl-5-((3-(trifluoromethyl)pyridin-2-yl)methyl)pyrido[2,3-b]pyrazin-6(5H)-one]: the “[Agonist] B-arrestin2 recruitment” value in experiment [1] (at 10 μM) was “Non-Active at 10 μM”. Further, the IC50 in experiment [2] is less than 500 nM.

In the case of `Cc1cnc2cc([C@H]3CC[C@H](c4c(C)nn(C)c4C)CC3)c(=O)n(Cc3ncccc3C(F)(F)F)c2n1` [compound 190, 3-Methyl-5-((3-(trifluoromethyl)pyridin-2-yl)methyl)-7-((1r,4r)-4-(1,3,5-trimethyl-1H-pyrazol-4-yl)cyclohexyl)pyrido[2,3-b]pyrazin-6(5H)-one], the “[Agonist] B-arrestin2 recruitment” value in experiment [1] (at 10 μM) is recorded as “Non-Active at 10 μM”. Further, the half-maximal inhibitory concentration (IC50) in experiment [2] was 500 to 5000 nM.

As for `Cc1cnc2cc([C@H]3CC[C@H](c4nn(C)c5ccccc54)CC3)c(=O)n(Cc3ncccc3C(F)(F)F)c2n1` [compound 191, 3-Methyl-7-((1r,4r)-4-(1-methyl-1H-indazol-3-yl)cyclohexyl)-5-((3-(trifluoromethyl)pyridin-2-yl)methyl)pyrido[2,3-b]pyrazin-6(5H)-one], the “[Agonist] B-arrestin2 recruitment” value in experiment [1] (at 10 μM) was “Non-Active at 10 μM”. In experiment [2], the IC50 fell in the range of 5000 to 100000 nM.

Take `Cc1cnc2cc([C@H]3CC[C@H](c4ccc5c(cnn5C)c4)CC3)c(=O)n(Cc3ncccc3C(F)(F)F)c2n1` [compound 192, 3-Methyl-7-((1r,4r)-4-(1-methyl-1H-indazol-5-yl)cyclohexyl)-5-((3-(trifluoromethyl)pyridin-2-yl)methyl)pyrido[2,3-b]pyrazin-6(5H)-one]: in experiment [1] (at 10 μM), the “[Agonist] B-arrestin2 recruitment” value is recorded as “Non-Active at 10 μM”. In addition, in experiment [2], the concentration for half-maximal inhibition (IC50) lay in the range of 500 to 5000 nM.

Consider `Cc1ccc2cc([C@H]3CC[C@H](c4c(C)cccc4F)CC3)c(=O)n(Cc3ncccc3C(F)F)c2n1` [compound 193, 1-((3-(Difluoromethyl)pyridin-2-yl)methyl)-3-((1r,4r)-4-(2-fluoro-6-methylphenyl)cyclohexyl)-7-methyl-1,8-naphthyridin-2(1H)-one], for which, in experiment [1], the “[Agonist] B-arrestin2 recruitment” value is “Non-Active”. In addition, the half-maximal inhibitory concentration (IC50) in experiment [2] is less than 500 nM.

In the case of `Cc1ccc2cc([C@H]3CC[C@H](c4c(C)cccc4F)CC3)c(=O)n(Cc3nccnc3C(F)(F)F)c2n1` [compound 194, 3-((1r,4r)-4-(2-Fluoro-6-methylphenyl)cyclohexyl)-7-methyl-1-((3-(trifluoromethyl)pyrazin-2-yl)methyl)-1,8-naphthyridin-2(1H)-one], in experiment [1], the “[Agonist] B-arrestin2 recruitment” value is on record as “Non-Active”. Also, the IC50 in experiment [2] was less than 500 nM.

With `Cc1ccc2cc([C@H]3CC[C@H](c4c(C)cccc4F)CC3)c(=O)n(Cc3ncccc3OC(F)F)c2n1` [compound 195, 1-((3-(Difluoromethoxy)pyridin-2-yl)methyl)-3-((1r,4r)-4-(2-fluoro-6-methylphenyl)cyclohexyl)-7-methyl-1,8-naphthyridin-2(1H)-one], in experiment [1], the “[Agonist] B-arrestin2 recruitment” value is “Non-Active”. The concentration for half-maximal inhibition (IC50) in experiment [2] was less than 500 nM.

For `Cc1ccc2cc([C@H]3CC[C@H](c4c(C)cccc4F)CC3)c(=O)n(Cc3ncccc3OC(F)(F)F)c2n1` [compound 196, 3-((1r,4r)-4-(2-Fluoro-6-methylphenyl)cyclohexyl)-7-methyl-1-((3-(trifluoromethoxy)pyridin-2-yl)methyl)-1,8-naphthyridin-2(1H)-one], in experiment [1], the “[Agonist] B-arrestin2 recruitment” value was “Non-Active”. In addition, the IC50 in experiment [2] was less than 500 nM.

For the compound `Cc1ncc2cc([C@H]3CC[C@H](c4c(C)cccc4F)CC3)c(=O)n(Cc3ncccc3OC(F)(F)F)c2n1` [compound 198, 6-((1r,4r)-4-(2-Fluoro-6-methylphenyl)cyclohexyl)-2-methyl-8-((3-(trifluoromethoxy)pyridin-2-yl)methyl)pyrido[2,3-d]pyrimidin-7(8H)-one], the “[Agonist] B-arrestin2 recruitment” value in experiment [1] is “Non-Active”. For the same compound, the concentration for half-maximal inhibition (IC50) in experiment [2] was less than 500 nM.
